Consider 18 substances from patent US5055396A, “Diagnostic methods and systems for quantifying APO AI” (Scripps Clinic and Research Foundation, priority 1987, dated 1991).

The assay concerns MAB AI-18. In words: Competitive RIA: inhibition of MAB AI-18 binding to solid-phase Apo AI/HDL by competitor antigen or peptide. Conditions: for expression of the epitope recognized by MAB AI-18 after NaOH treatment: NaOH treated Apo AI/HDL, 18 hours at about 20 degrees C; for B/Bo: background-adjusted; for Immunoreactivity (concentration of peptide competitor required to achieve a B/Bo value of 0.5): competitive RIA, MAB AI-18 ascites 1:1.25×10^5, solid-phase Apo AI/HDL; for immunoreactivity values (in words): higher value represents a lower affinity; for ability of the peptide to immunologically mimic a native conserved epitope of Apo AI: FIG. 5, proline 99 deleted or substituted by glycine. More on the design: species or system mouse. The protocol:
One hundred ul of PBS (0.15M NaCl, 0.01M NaPO4, pH 7.2) containing 10 ug/ml Apo AI/HDL were admixed to the wells of microtiter plates. The plates were maintained for 1 hour at 20 degrees C. on a rotating platform to allow the Apo AI/HDL to adhere to the wells and form solid supports. After aspirating excess liquid from the wells, 200 ul of block solution (3% BSA, 3% NGS in PBS) was admixed to each well, and the wells were maintained for 30 minutes at 20 degrees C. on a rotating platform. Subsequently, the blocking solution was removed by aspiration and the wells were washed 3 times with SPRIA buffer.
In control wells either competing antigen or antibody was replaced by PBS containing 3% BSA.
The immunoreaction admixtures were maintained about 16 hours at 4 degrees C. on a rotating platform to permit formation of solid-phase immunoreaction products. […] The labeling immunoreaction admixtures so formed were maintained for 4 hours at 4 degrees C. on a rotating platform.
[…] of serial 3 fold dilutions of each sample prepared in Table 3 were admixed as competitor in the RIA described in this Example.
Fifty microliters of the stock of 2 fold serial dilutions of the stock were used as competitor in the RIA described in this Example.

On to “G: NaOH treated Apo AI/HDL, 250 ul 1N NaOH, pH 12.85”, for which the “expression of the epitope recognized by MAB AI-18 after NaOH treatment” value (“expression of the epitope recognized” for short) is recorded as “decrease in expression of the epitope”. For the setting “competitor dilution 1:3”, the “CPM of 125I-labeled solid phase immunoreaction product” value (shortened to “CPM”) came to 305 CPM and the B/Bo is reported as 0.016. For the setting “competitor dilution 1:9”, the “CPM” value was 339 CPM and the B/Bo amounted to 0.019. Moreover, for the setting “competitor dilution 1:27”, the “CPM” value stood at 497 CPM and the B/Bo is recorded as 0.039. Besides, under “competitor dilution 1:81”, the “CPM” value is on record as 771 CPM and the B/Bo is given as 0.074. Where the note is “competitor dilution 1:243”, the “CPM” value is reported as 1157 CPM and the B/Bo was 0.124. Further, for the setting “competitor dilution 1:729”, the “CPM” value is recorded as 1891 CPM and the B/Bo worked out at 0.218. Further, where the note is “competitor dilution Neat”, the “CPM” value worked out at 195 CPM and the B/Bo came out at 0.000.
SKDLEEVKAKVQPYLDDFQ [AI87-105]: the “Immunoreactivity (concentration of peptide competitor required to achieve a B/Bo value of 0.5)” value is reported as 10 ug protein/ml.
QKKWQEEMELYR [AI105-116]: the “Immunoreactivity (concentration of peptide competitor required to achieve a B/Bo value of 0.5)” value is recorded as > 10,000 ug protein/ml and the “immunoreactivity values (in words)” value is “high immunoreactivity values”.
As for “KVQPYL (UniProt P02647 120-125, looked up, fragment) [AI96-101]”, the “Immunoreactivity (concentration of peptide competitor required to achieve a B/Bo value of 0.5)” value was > 10,000 ug protein/ml.
For the substance “Apo AI/HDL: Apo AI when it is present on HDL particles [reference compound]”, the “slope of logit transformed competition data” value (competitor HDL or fresh plasma, FIG. 2) is given as -2.03. The “CPM” value is, setting by setting: (competitor dilution 1:3) 2348 CPM; (competitor dilution 1:9) 3778 CPM; (competitor dilution 1:27) 5057 CPM; (competitor dilution 1:81) 5868 CPM; (competitor dilution 1:243) 6380 CPM; (competitor dilution 1:729) 6679 CPM. For the same substance, for the setting “competitor dilution Neat”, the “CPM” value is reported as 1152 CPM. The B/Bo by setting is: (competitor dilution 1:3) 0.277; (competitor dilution 1:9) 0.460; (competitor dilution 1:27) 0.624; (competitor dilution 1:81) 0.729; (competitor dilution 1:243) 0.794; (competitor dilution 1:729) 0.833. This substance showed a B/Bo (competitor dilution Neat) of 0.123.
In the case of “D: NaOH treated Apo AI/HDL, 5 ul 1N NaOH, pH 10.67”, the “expression of the epitope recognized” value is given as “decrease in expression of the epitope”. In addition, where the note is “competitor dilution 1:3”, the “CPM” value is on record as 1174 CPM and the B/Bo was 0.126. Further, under “competitor dilution 1:9”, the “CPM” value was determined as 2746 CPM and the B/Bo is 0.328. Besides, where the note is “competitor dilution 1:27”, the “CPM” value is recorded as 3854 CPM and the B/Bo is reported as 0.470. Also, where the note is “competitor dilution 1:81”, the “CPM” value is reported as 5220 CPM and the B/Bo is reported as 0.645. Moreover, where the note is “competitor dilution 1:243”, the “CPM” value is reported as 6385 CPM and the B/Bo is reported as 0.795. Besides, for the setting “competitor dilution 1:729”, the “CPM” value stood at 6917 CPM and the B/Bo was 0.863. Moreover, under “competitor dilution Neat”, the “CPM” value was determined as 589 CPM and the B/Bo was 0.051.
As for “YLDDFQ (UniProt P02647 124-129, looked up, fragment) [AI100-105]”, the “Immunoreactivity (concentration of peptide competitor required to achieve a B/Bo value of 0.5)” value is on record as > 10,000 ug protein/ml and the “immunoreactivity values (in words)” value was “high immunoreactivity values”.
With LDDFQKKWQEE [AI101-111], the “Immunoreactivity (concentration of peptide competitor required to achieve a B/Bo value of 0.5)” value is reported as > 10,000 ug protein/ml and the “immunoreactivity values (in words)” value is recorded as “high immunoreactivity values”.
Regarding VKAKVQPYL [AI93-101], the “Immunoreactivity (concentration of peptide competitor required to achieve a B/Bo value of 0.5)” value was > 10,000 ug protein/ml and the “immunoreactivity values (in words)” value is reported as “high immunoreactivity values”.
On to “F: NaOH treated Apo AI/HDL, 50 ul 1N NaOH, pH 11.86”, for which the “expression of the epitope recognized” value is given as “decrease in expression of the epitope”. Further, for the setting “competitor dilution 1:3”, the “CPM” value was 185 CPM and the B/Bo entry is “-.001”. For the setting “competitor dilution 1:9”, the “CPM” value is listed as 281 CPM and the B/Bo came to 0.011. Further, where the note is “competitor dilution 1:27”, the “CPM” value is recorded as 342 CPM and the B/Bo is 0.019. For the same substance, under “competitor dilution 1:81”, the “CPM” value stood at 516 CPM and the B/Bo stood at 0.041. Under “competitor dilution 1:243”, the “CPM” value is recorded as 744 CPM and the B/Bo worked out at 0.071. Besides, where the note is “competitor dilution 1:729”, the “CPM” value is 1295 CPM and the B/Bo was determined as 0.141. Further, where the note is “competitor dilution Neat”, the “CPM” value turned out to be 222 CPM and the B/Bo was determined as 0.004.
As for SKDLEEVKAKVQPYL [AI87-101], the “Immunoreactivity (concentration of peptide competitor required to achieve a B/Bo value of 0.5)” value was 8,400 ug protein/ml and the “immunoreactivity values (in words)” value is “high immunoreactivity values”.
Regarding LEEVKAKVQPYLDDFQKKWQEE [AI90-111], the “Immunoreactivity (concentration of peptide competitor required to achieve a B/Bo value of 0.5)” value was determined as 9 ug protein/ml.
On to AKVQYLDDFQ [AI95-105 (-P)], for which the “ability of the peptide to immunologically mimic a native conserved epitope of Apo AI” value was “substantially decreases the ability of the peptide to immunologically mimic a native conserved epitope” and the “Immunoreactivity (concentration of peptide competitor required to achieve a B/Bo value of 0.5)” value was > 10,000 ug protein/ml.
In the case of AKVQPYLDDFQ [AI95-105], the “Immunoreactivity (concentration of peptide competitor required to achieve a B/Bo value of 0.5)” value came to 45 ug protein/ml.
“E: NaOH treated Apo AI/HDL, 15 ul 1N NaOH, pH 11.33”: the “expression of the epitope recognized” value is “decrease in expression of the epitope”. Also, under “competitor dilution 1:3”, the “CPM” value was 553 CPM and the B/Bo came to 0.046. Moreover, where the note is “competitor dilution 1:9”, the “CPM” value stood at 881 CPM and the B/Bo worked out at 0.088. Where the note is “competitor dilution 1:27”, the “CPM” value was found to be 1543 CPM and the B/Bo is 0.173. Where the note is “competitor dilution 1:81”, the “CPM” value was determined as 2283 CPM and the B/Bo was found to be 0.268. Further, for the setting “competitor dilution 1:243”, the “CPM” value was 3338 CPM and the B/Bo is recorded as 0.404. Moreover, under “competitor dilution 1:729”, the “CPM” value was 4918 CPM and the B/Bo was 0.607. Moreover, where the note is “competitor dilution Neat”, the “CPM” value came to 263 CPM and the B/Bo stood at 0.009.
With AKVQGYLDDFQ [AI95-105 (G/P)], the “ability of the peptide to immunologically mimic a native conserved epitope of Apo AI” value was “substantially decreases the ability of the peptide to immunologically mimic a native conserved epitope” and the “Immunoreactivity (concentration of peptide competitor required to achieve a B/Bo value of 0.5)” value was > 10,000 ug protein/ml.
In the case of “B: NaOH treated Apo AI/HDL, 5 ul 0.01N NaOH, pH 6.34”, the “expression of the epitope recognized” value is “stable to NaOH treatments”. In addition, for the setting “competitor dilution 1:3”, the “CPM” value is on record as 2852 CPM and the B/Bo worked out at 0.341. For the same substance, where the note is “competitor dilution 1:9”, the “CPM” value stood at 4399 CPM and the B/Bo is 0.540. Further, for the setting “competitor dilution 1:27”, the “CPM” value worked out at 6195 CPM and the B/Bo was determined as 0.771. In addition, under “competitor dilution 1:81”, the “CPM” value is reported as 6988 CPM and the B/Bo is 0.872. Under “competitor dilution 1:243”, the “CPM” value was determined as 7483 CPM and the B/Bo was determined as 0.936. Also, under “competitor dilution 1:729”, the “CPM” value is recorded as 7406 CPM and the B/Bo came out at 0.926. Under “competitor dilution Neat”, the “CPM” value was 1110 CPM and the B/Bo is on record as 0.118.
Take “Sample A: Apo AI/HDL, no NaOH treatment control, pH 6.26 [reference compound]”: the “CPM” value by setting is: (competitor dilution 1:3) 2542 CPM; (competitor dilution 1:9) 4799 CPM; (competitor dilution 1:27) 5786 CPM; (competitor dilution 1:81) 6745 CPM; (competitor dilution 1:243) 7270 CPM; (competitor dilution 1:729) 7255 CPM. Moreover, the “CPM” value (competitor dilution Neat) is 965 CPM. The same substance returned a B/Bo (competitor dilution 1:3) of 0.301; a B/Bo (competitor dilution 1:9) of 0.527; a B/Bo (competitor dilution 1:27) of 0.718; a B/Bo (competitor dilution 1:81) of 0.841; a B/Bo (competitor dilution 1:243) of 0.090; a B/Bo (competitor dilution 1:729) of 0.907. For the setting “competitor dilution Neat”, this substance showed a B/Bo of 0.099.
